# Legend:
# Type in all cases: cell-based
# BCL-XL = molecular target: T1, BCL-XL (Homo sapiens, UniProt Q07817); assay: Bcl-xL ELISA degradation in MOLT-4 cells, 6 h; conditions: for DC50: read-out: Bcl-xL ELISA in MOLT-4 degradation 6 h: Mean external-Abs DC50
# T1 construct: endogenous in cells; host or cells: MOLT-4
# Procedure: The letter codes for BCL-XL DC50 include: A (<0.01 μM); B (0.01-0.1 μM); C (>[…]); D (>0.5-1.0 μM); and E (>1.0 μM). The letter codes for Dmax % include A (>75%); B (50 to 75%); C (<50%).
# Caki-2 cells = assay: CTG (CellTiter-Glo) cell viability assay, Caki-2; conditions: Homo sapiens, 72 h, 3 day incubation, read-out: CTG Chempartner - Caki-2 3 day: Average external-IC50
# Summary of the method: (§1)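 Luminescence from CellTiter-Glo, read after 3 days of compound exposure at 37 °C, gave viability; IC50 values came from three-parameter logistic curves. Cells were plated at 10,000 per well and dosed over nine 1:3 steps topping at 10 μM.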
# MOLT-4 cells = assay: CTG (CellTiter-Glo) cell viability assay, MOLT-4; conditions: Homo sapiens, MOLT-4, 72 h, 3 day incubation, read-out: CTG Cell Viability Assay - MOLT-4 3 day: Average external-IC50
# Summary of the method: as §1
# T1 sequence (Q07817 whole entry): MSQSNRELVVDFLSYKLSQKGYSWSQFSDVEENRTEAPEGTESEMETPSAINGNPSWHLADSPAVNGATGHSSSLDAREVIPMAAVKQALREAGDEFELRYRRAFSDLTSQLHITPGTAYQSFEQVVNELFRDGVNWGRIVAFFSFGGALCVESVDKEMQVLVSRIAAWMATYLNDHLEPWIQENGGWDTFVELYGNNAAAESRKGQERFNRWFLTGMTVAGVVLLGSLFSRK
Compound,Dmax (BCL-XL) [%],DC50 (BCL-XL) [nM],IC50 (Caki-2 cells) [nM],IC50 (MOLT-4 cells) [nM]
C#Cc1ccc(CNC(=O)[C@@H]2C[C@@H](O)CN2C(=O)[C@H](c2cc(N3CCN(c4ccc(S(=O)(=O)NC(=O)c5nc(N6CCc7cccc(C(=O)Nc8nc9ccccc9s8)c7C6)ccc5-c5cnn(CC6CCCCC6)c5C)cc4)CC3)no2)C(C)C)cc1 [I-407],50 to 75,100 to 500,1000 to 10000,100 to 1000
CCN1CCN(Cc2cc(S(=O)(=O)NC(=O)c3nc(N4CCc5cccc(C(=O)Nc6nc7ccccc7s6)c5C4)ccc3-c3cnn(CC4CCCCC4)c3C)ccc2N2CCC(C(=O)N[C@H](C(=O)N3C[C@H](O)C[C@H]3C(=O)NCc3ccc(-c4scnc4C)cc3)C(C)(C)C)CC2)CC1 [I-341],> 75,10 to 100,> 10000,100 to 1000
Cc1ncsc1-c1ccc([C@H](CO)NC(=O)[C@@H]2C[C@@H](O)CN2C(=O)[C@@H](NC(=O)CCNCCS(=O)(=O)NC(=O)c2nc(N3CCc4cccc(C(=O)Nc5nc6cccnc6s5)c4C3)ccc2-c2cnn(CC3CCCCC3)c2C)C(C)(C)C)cc1 [I-377],> 75,< 10,> 10000,1000 to 3000
Cc1ncsc1-c1ccc([C@H](C)NC(=O)[C@@H]2C[C@@H](O)CN2C(=O)[C@@H](NC(=O)C#CC2CCN(S(=O)(=O)NC(=O)c3nc(N4CCc5cccc(C(=O)Nc6nc7ccccc7s6)c5C4)ccc3-c3cnn(CC4CCCCC4)c3C)CC2)C(C)(C)C)cc1 [I-420],> 75,10 to 100,1000 to 10000,< 100
C#Cc1ccc([C@H](C)NC(=O)[C@@H]2C[C@@H](O)CN2C(=O)[C@@H](NC(=O)CCCCCS(=O)(=O)NC(=O)c2nc(N3CCc4cccc(C(=O)Nc5nc6cccnc6s5)c4C3)ccc2-c2cnn(CC3CCCCC3)c2C)C(C)(C)C)c(OCCO)c1 [I-480],> 75,< 10,> 10000,< 100
C#Cc1ccc([C@H](COC)NC(=O)[C@@H]2C[C@@H](O)CN2C(=O)[C@@H](NC(=O)CCCCCS(=O)(=O)NC(=O)c2nc(N3CCc4cccc(C(=O)Nc5nc6cccnc6s5)c4C3)ccc2-c2cnn(CC3CCCCC3)c2C)C(C)(C)C)cc1 [I-478],> 75,< 10,> 10000,< 100
Cc1ncsc1-c1ccc([C@H](C)NC(=O)[C@@H]2C[C@@H](O)CN2C(=O)[C@@H](NC(=O)CCCCCS(=O)(=O)NC(=O)c2nc(N3CCc4cccc(C(=O)Nc5nc6ccccc6s5)c4C3)ccc2-c2cccc(OC(C)C)c2C)C(C)(C)C)cc1 [I-309],50 to 75,100 to 500,1000 to 10000,1000 to 3000
Cc1ncsc1-c1ccc([C@H](C)NC(=O)[C@@H]2C[C@@H](O)CN2C(=O)[C@@H](NC(=O)N2CC(CN3CCC(S(=O)(=O)NC(=O)c4nc(N5CCc6cccc(C(=O)Nc7nc8ccccc8s7)c6C5)ccc4-c4cnn(CC5CCCCC5)c4C)CC3)C2)C(C)(C)C)cc1 [I-336],> 75,10 to 100,> 10000,1000 to 3000
C#Cc1ccc([C@H](C)NC(=O)[C@@H]2C[C@@H](O)CN2C(=O)[C@@H](NC(=O)CCCCCS(=O)(=O)NC(=O)c2nc(N(C)c3cc(C)c(Nc4nc5cccnc5s4)nn3)ccc2-c2cnn(CC34CC5CC(CC(C5)C3)C4)c2C)C(C)(C)C)cc1 [I-447],> 75,10 to 100,> 10000,100 to 1000
Cc1ncsc1-c1ccc([C@H](C)NC(=O)[C@@H]2C[C@@H](O)CN2C(=O)[C@@H](NC(=O)CCCCCS(=O)(=O)NC(=O)c2nc(N3CCc4cccc(C(=O)Nc5nc6ccccc6s5)c4C3)ccc2-c2ccnc(OC(C)C)c2C)C(C)(C)C)cc1 [I-315],> 75,10 to 100,> 10000,< 100
Cc1ncsc1-c1ccc([C@H](C)NC(=O)[C@@H]2C[C@@H](O)CN2C(=O)[C@@H](NC(=O)CCCS(=O)(=O)NC(=O)c2nc(N3CCc4cccc(C(=O)Nc5nc6cccnc6s5)c4C3)ccc2-c2cnn(CC3CCCCC3)c2C)C(C)(C)C)cc1 [I-331],50 to 75,100 to 500,> 10000,100 to 1000
Cc1ncsc1-c1ccc(CNC(=O)[C@@H]2C[C@@H](O)CN2C(=O)[C@@H](NC(=O)CCCc2cccc(S(=O)(=O)NC(=O)c3nc(N4CCc5cccc(C(=O)Nc6nc7ccccc7s6)c5C4)ccc3-c3cnn(CC4CCCCC4)c3C)c2)C(C)(C)C)cc1 [I-337],> 75,< 10,> 10000,< 100
Cc1c(-c2ccc(N3CCc4cccc(C(=O)Nc5nc6ccccc6s5)c4C3)nc2C(=O)NS(=O)(=O)CCCCCc2cccc3c2n(C)c(=O)n3C2CCC(=O)NC2=O)cnn1CC1CCCCC1 (centres unmarked) [I-426],> 75,< 10,1000 to 10000,< 100
Cc1ncsc1-c1ccc(CNC(=O)[C@@H]2C[C@@H](O)CN2C(=O)[C@@H](NC(=O)C2CN(CCS(=O)(=O)NC(=O)c3nc(N4CCc5cccc(C(=O)Nc6nc7ccccc7s6)c5C4)ccc3-c3cnn(CC4CCCCC4)c3C)C2)C(C)(C)C)cc1 [I-422],> 75,100 to 500,> 10000,100 to 1000
Cc1ncsc1-c1ccc([C@H](C)NC(=O)[C@@H]2C[C@@H](O)CN2C(=O)[C@@H](NC(=O)C2CCN(c3ccc(S(=O)(=O)NC(=O)c4nc(N5CCc6cccc(C(=O)Nc7nc8ccccc8s7)c6C5)ccc4-c4cnn(CC5CCCCC5)c4C)cc3)C(=O)C2)C(C)(C)C)cc1 (some centres unmarked) [I-299],> 75,100 to 500,1000 to 10000,100 to 1000
Cc1ncsc1-c1ccc(CNC(=O)[C@@H]2C[C@@H](O)CN2C(=O)[C@@H](NC(=O)C2CN(CCCS(=O)(=O)NC(=O)c3nc(N4CCc5cccc(C(=O)Nc6nc7ccccc7s6)c5C4)ccc3-c3cnn(CC4CCCCC4)c3C)C2)C(C)(C)C)cc1 [I-421],> 75,10 to 100,> 10000,1000 to 3000
Cc1ncsc1-c1ccc([C@H](C)NC(=O)[C@@H]2C[C@H](O)CN2C(=O)[C@@H](NC(=O)C2CCN(c3ccc(S(=O)(=O)NC(=O)c4nc(N5CCc6cccc(C(=O)Nc7nc8ccccc8s7)c6C5)ccc4-c4cnn(CC5CCCCC5)c4C)cc3)CC2)C(C)(C)C)cc1 [I-295],50 to 75,10 to 100,1000 to 10000,100 to 1000
Cc1ncsc1-c1ccc([C@H](C)NC(=O)[C@@H]2C[C@@H](O)CN2C(=O)[C@@H](NC(=O)CCCCCS(=O)(=O)NC(=O)c2nc(N3CCc4cccc(C(=O)Nc5nc6ccccc6s5)c4C3)ccc2-c2cnn(CC3CCCC3)c2C)C(C)(C)C)cc1 [I-442],> 75,10 to 100,> 10000,< 100
Cc1ncsc1-c1ccc([C@H](C)NC(=O)[C@@H]2C[C@H](O)CN2C(=O)[C@@H](NC(=O)CCc2ccc(S(=O)(=O)NC(=O)c3nc(N4CCc5cccc(C(=O)Nc6nc7ccccc7s6)c5C4)ccc3-c3cnn(CC4CCCCC4)c3C)cc2)C(C)(C)C)cc1 [I-285],50 to 75,100 to 500,1000 to 10000,100 to 1000
C#Cc1ccc(CNC(=O)[C@@H]2C[C@@H](O)CN2C(=O)[C@@H](NC(=O)C2CN(c3ccc(S(=O)(=O)NC(=O)c4nc(N5CCc6cccc(C(=O)Nc7nc8ccccc8s7)c6C5)ccc4-c4cnn(CC5CCCCC5)c4C)cc3F)C2)C(C)(C)C)cc1 [I-358],> 75,10 to 100,1000 to 10000,< 100
Cc1ncsc1-c1ccc([C@H](C)NC(=O)[C@@H]2C[C@@H](O)CN2C(=O)[C@@H](c2cc(OC3CC4(C3)CN(C(=O)c3nc(N5CCc6cccc(C(=O)Nc7nc8ccccc8s7)c6C5)ccc3-c3cnn(CC5CCCCC5)c3C)C4)no2)C(C)C)cc1 [I-294],50 to 75,10 to 100,1000 to 10000,100 to 1000
Cc1ncsc1-c1ccc([C@H](C)NC(=O)[C@@H]2C[C@@H](O)CN2C(=O)[C@@H](NC(=O)CCCCCS(=O)(=O)NC(=O)c2nc(N3CCc4cccc(C(=O)Nc5nc6ccccc6s5)c4C3)ccc2-c2cnn(CC3CCCCC3)c2C)C(C)(C)CCOP(=O)(O)O)cc1 [I-415],50 to 75,> 1000,> 10000,> 3000
Cc1ncsc1-c1ccc(CNC(=O)[C@@H]2C[C@@H](O)CN2C(=O)[C@@H](NC(=O)CCc2ccc(S(=O)(=O)NC(=O)c3nc(N4CCc5cccc(C(=O)Nc6nc7ccccc7s6)c5C4)ccc3-c3cnn(CC4CCCCC4)c3C)c(F)c2)C(C)(C)C)cc1 [I-320],> 75,100 to 500,> 10000,1000 to 3000
Cc1ncsc1-c1ccc(CNC(=O)[C@@H]2C[C@@H](O)CN2C(=O)[C@@H](NC(=O)C2CCN(c3ccc(S(=O)(=O)NC(=O)c4nc(N5CCc6cccc(C(=O)Nc7nc8ccccc8s7)c6C5)ccc4-c4cnn(CC5CCCCC5)c4C)cc3F)CC2)C(C)(C)C)cc1 [I-329],> 75,10 to 100,1000 to 10000,< 100
Cc1cc(N(C)c2ccc(-c3cnn(CC45CC6CC(CC(C6)C4)C5)c3C)c(C(=O)NS(=O)(=O)CCCCC(=O)N[C@H](C(=O)N3C[C@H](O)C[C@H]3C(=O)N[C@@H](C)c3ccc(-c4scnc4C)cc3)C(C)(C)C)n2)nnc1Nc1nc2ccccc2s1 [I-372],> 75,10 to 100,> 10000,< 100
Cc1ncsc1-c1ccc(CNC(=O)[C@@H]2C[C@@H](O)CN2C(=O)[C@@H](NC(=O)COc2ccc(S(=O)(=O)NC(=O)c3nc(N4CCc5cccc(C(=O)Nc6nc7ccccc7s6)c5C4)ccc3-c3cnn(CC4CCCCC4)c3C)cc2)C(C)(C)C)cc1 [I-327],> 75,10 to 100,1000 to 10000,< 100

# Reference: patent US20250197387A1, “BCL-XL DEGRADERS AND USES THEREOF” (Kymera Therapeutics, Inc., priority 2021, published 2025)
